Source: patent publication US20050196806A1, “Prostate specific antigen oligoepitope peptide” (The Government of the USA, as represented by the Secretary, …, priority 1996, published 2005)
Marks after values point to notes of the source that are not given here.

What was measured:
human HLA A2 molecules = target: T1, human HLA A2 molecules (Homo sapiens, UniProt P04439, D140Y/D185E/D98H/E176V/E277Q/G131W/G231S/I119V/I121R/I166T/I218V/L300P/L318F/N151K/N90K/P208A/P217A/Q86G/Q94H/R138H/R169H/T345S); experiment: T2 cell binding assay (PSA peptide binding assay, Example II); details: peptides at 50 μg/ml, None = 127.25
T1 construct: endogenous in cells; host or cells: T2 cells (174CEM.T2)
From the text: The amino acid sequence of human PSA was scanned using a predictive algorithm that combines a search for anchor residues with numerical assignments to all residues at all positions. The T2 cell binding assay was then used to determine which peptides bound human HLA A2 molecules. […] Table 7 gives the amino acid sequence of these peptides and compares them to corresponding sequences of HGK and PKA.

[1] = target: T2, HLA class-I A2001 molecule (Homo sapiens, UniProt P04439, D140Y/D185E/D98H/E176V/E277Q/G131W/G231S/I119V/I121R/I166T/I218V/L300P/L318F/N151K/N90K/P208A/P217A/Q86G/Q94H/R138H/R169H/T345S); experiment: Peptide binding to HLA-A2: upregulation on T2 cells by flow cytometry (Example IV); details: T2 cells incubated 24 h with peptide 50 μg/ml/10^6 cells; 100 cut off value for positivity; None = 16.88
T2 construct: endogenous in cells; host or cells: T2 cells (174CEM.T2, transport deletion mutant)
Description: 1×10^6 cells in serum-free IMDM were incubated with peptides at the concentration of 50 μg/ml in 24-well culture plates at 37° C. in 5% CO2. Flow cytometry for peptide binding was performed using T2 cells and single color analysis. After cells were washed three times in DPBS as above, they were incubated for 1 hr with HLA-A2 specific MAb A2,69 (One lambda, Inc., Canoga Park, Calif.), using 10 μl of a 1× working dilution per 10^6 cells. MOPC-21 (Cappel/Organon Teknika Corp.) was used as isotype control. The cells were then washed three times and incubated with 1:100 dilution of fluorescein (FITC) labeled anti-mouse IgG (Kirkegaard & Perry, Gaithersburg, Md.). Analysis was carried out using the FACScan as described above. Cells were maintained on ice during all cell preparation and staining unless otherwise stated.

[2] = test system: PBMC from normal healthy donors expressing the HLA A2 class 1 allele; experiment: Establishment of human T cell lines by pulsing PBMC with peptide and IL-2; type: cell-based; details: donors with T cell line / donors tested; PBMC pulsed with peptide and IL-2
From the text: Cytotoxic T-cells specific for PSA can be established from peripheral blood mononuclear cells (PBMC) obtained from a host immunized as discussed above. For example, PBMC can be separated by using Lymphocyte Separation Medium gradient (Organon Teknika, Durham, N.C., USA) as previously described [Boyum et al, Scand J. Clin Lab Invest 21:77-80 (1968)]. Washed PBMC are resuspended in a complete medium, for example, RPMI 1640 (GIBCO) supplemented with 10% pool human AB serum (Pel-Freeze Clinical System, Brown Dear, Wisc., USA), 2 mM glutamine, 100 U/ml penicillin and 100 μg/ml of streptomycin (GIBCO). PBMC at a concentration of about 2×10^5 cells in complete medium in a volume of, for example 100 μl are added into each well of a 96-well flat-bottom assay plate (Costar, Cambridge, Mass., USA). The antigen or peptides are added into the cultures in a final concentration of about 50 μg/ml and incubated at 37° C. in a humidified atmosphere containing 5% CO2 for 5 days. After removal of peptide containing media, the cultures are provided with fresh human IL-2 (10 U/ml) after 5 days and replenished with IL-2 containing medium every 3 days. Primary cultures are restimulated with the same peptide (50 μg/ml) on day 16. 5×10^5 irradiated (4,000 rad) autologous PBMC are added in a volume of about 50 μl complete medium as antigen-presenting cells (APC). […]

T2 cells = experiment: Cytotoxic assay of PSA peptide specific T cells against T2 cells; type: cell-based, human; details: 24 hour assay, E:T ratio 25:1
NK target K562 = experiment: Cytotoxic assay of PSA peptide specific T cells against K562; type: cell-based, human; details: T-Donor A T-cell line; 24 hour assay, E:T ratio 25:1
From the text: Four of the T cell lines derived from three different individuals were then assays for their ability to lyse human cells (Table 9). […] No lysis was seen using the PSA negative human colon cancer cell line COLO-205. While 80% lysis was seen using the LNCAP PSA expressing human prostate cancer cell line. When employing the NK target K562, which measures non-specific lysis due to NK cell activity, only 23% lysis was obtained. Similar results were seen employing a different T cell line obtained from the same patient which was derived from pulsing with PSA peptide 154-163. Two additional T cell lines which were derived from peptide 154-163 were also analyzed. One was from a normal donor (T-1538) and one was from a prostate cancer patient (T-PC2; T Donor C).

## FLTPKKLQCV [PSA-1, ID No. 1]
Human HLA A2 molecules; listed as 141-150
  MAb A2, 69: Mean channel fluorescent intensity: positive
Human HLA A2 molecules; listed as PSA 141-150
  MAb A2, 69: Mean channel fluorescent intensity: 230.34
[1]
  T2 binding: relative fluorescence (mean intensity) with anti-HLA-A2 mAb: 127.73
[2]
  T cell lines established from normal donors: 5/6
T2 cells; T-Donor A T-cell line derived with the peptide, 111In release
  % specific release (lysis), T2: 10^a %
T2 cells; T-Donor A T-cell line
  % specific release (lysis), T2 + peptide: 40^b %
NK target K562
  % specific release (lysis), K562: 23%
